Reference: ChEMBL document CHEMBL4043287, “A Structure-Activity Relationship Study of Bitopic N6-Substituted Adenosine Derivatives as Biased Adenosine A1 Receptor Agonists” (J Med Chem, 2018)
Calls of active or inactive are those of the source. The calls are words filed in the database; no cut-off is given here.

Assays:
Adenosine receptor A1 [1] = target: T1, Adenosine receptor A1 (Homo sapiens, UniProt P30542); experiment: Agonist activity at human A1AR expressed in FlpIn-CHO cells assessed as intracellular calcium mobilization by measuring agonist transduction coefficient by Fluo-4 dye-based fluorescence assay; assay type: cell-based
T1 sequence (P30542 whole entry): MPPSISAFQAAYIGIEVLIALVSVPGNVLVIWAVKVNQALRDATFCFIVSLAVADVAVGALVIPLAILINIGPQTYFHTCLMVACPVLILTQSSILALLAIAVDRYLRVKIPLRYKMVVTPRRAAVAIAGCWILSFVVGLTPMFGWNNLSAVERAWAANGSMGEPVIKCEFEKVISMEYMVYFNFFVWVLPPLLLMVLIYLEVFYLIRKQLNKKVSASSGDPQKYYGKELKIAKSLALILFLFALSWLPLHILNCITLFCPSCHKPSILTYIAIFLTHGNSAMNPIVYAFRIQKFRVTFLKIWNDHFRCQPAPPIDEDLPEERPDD

[2] = target: T2, Adenosine receptor A3 (Homo sapiens) (UniProt P0DMS8); experiment: Agonist activity at human A3AR expressed in FlpIn-CHO cells assessed as inhibition of forskolin-stimulated cAMP accumulation preincubated for 10 mins followed by forskolin addition measured after 30 mins by Alphascreen assay relative to control; assay type: functional, cell-based
T2 sequence (whole entry): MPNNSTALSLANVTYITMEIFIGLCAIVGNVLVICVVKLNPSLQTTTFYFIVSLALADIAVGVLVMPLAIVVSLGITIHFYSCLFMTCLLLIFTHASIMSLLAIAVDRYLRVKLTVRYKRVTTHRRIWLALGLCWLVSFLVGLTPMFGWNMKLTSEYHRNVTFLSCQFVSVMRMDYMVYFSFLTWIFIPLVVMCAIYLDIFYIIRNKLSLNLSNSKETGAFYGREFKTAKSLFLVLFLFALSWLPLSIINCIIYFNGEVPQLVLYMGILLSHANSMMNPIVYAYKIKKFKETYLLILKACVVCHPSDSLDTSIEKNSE

Adenosine receptor A2a = Adenosine receptor A2a (Homo sapiens, UniProt P29274); experiment: Agonist activity at human A2A-AR expressed in FlpIn-CHO cells assessed as inhibition of forskolin-stimulated cAMP accumulation preincubated for 40 mins followed by forskolin addition measured after 30 mins by Alphascreen assay
Sequence of Adenosine receptor A2a (P29274 whole entry): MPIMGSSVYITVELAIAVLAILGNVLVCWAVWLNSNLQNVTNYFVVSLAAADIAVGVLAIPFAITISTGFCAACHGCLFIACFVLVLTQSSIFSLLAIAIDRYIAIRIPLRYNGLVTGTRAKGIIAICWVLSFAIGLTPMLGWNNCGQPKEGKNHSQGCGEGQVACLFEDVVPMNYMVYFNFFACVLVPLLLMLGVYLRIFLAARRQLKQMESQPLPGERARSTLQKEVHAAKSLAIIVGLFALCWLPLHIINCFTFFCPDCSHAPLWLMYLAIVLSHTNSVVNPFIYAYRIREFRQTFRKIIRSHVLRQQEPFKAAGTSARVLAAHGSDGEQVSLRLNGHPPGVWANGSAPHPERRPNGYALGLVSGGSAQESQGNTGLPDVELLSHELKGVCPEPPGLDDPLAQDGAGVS

[3] = target: T3, Adenosine receptor A2b (Homo sapiens) (UniProt P29275); experiment: Agonist activity at human A2BAR expressed in FlpIn-CHO cells assessed as […] cAMP accumulation preincubated for 40 mins followed by forskolin addition measured after 30 mins by Alphascreen assay relative to control; assay type: functional, cell-based
T3 sequence (whole entry): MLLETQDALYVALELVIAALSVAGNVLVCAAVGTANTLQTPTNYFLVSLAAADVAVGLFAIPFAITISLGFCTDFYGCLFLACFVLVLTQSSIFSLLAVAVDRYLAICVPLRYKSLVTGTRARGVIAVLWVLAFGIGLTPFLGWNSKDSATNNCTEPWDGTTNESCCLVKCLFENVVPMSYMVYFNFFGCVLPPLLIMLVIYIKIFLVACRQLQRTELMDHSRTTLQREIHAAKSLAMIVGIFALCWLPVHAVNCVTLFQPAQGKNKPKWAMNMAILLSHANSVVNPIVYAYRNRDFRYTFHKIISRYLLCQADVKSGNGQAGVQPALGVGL

Adenosine receptor A1 [4] = target: T1, Adenosine receptor A1; experiment: Agonist activity at human A1AR expressed in FlpIn-CHO cells assessed as intracellular calcium mobilization by Fluo-4 dye-based fluorescence assay; assay type: cell-based
Adenosine receptor A2b = target: T4, Adenosine receptor A2b (Homo sapiens, UniProt P29275); experiment: Agonist activity at human A2BAR expressed in FlpIn-CHO cells assessed as […] cAMP accumulation preincubated for 40 mins followed by forskolin addition measured after 30 mins by Alphascreen assay; assay type: functional, cell-based
T4 sequence (P29275 whole entry): T3 sequence (whole entry)

Adenosine receptor A3 = target: T5, Adenosine receptor A3 (Homo sapiens, UniProt P0DMS8); experiment: Agonist activity at human A3AR expressed in FlpIn-CHO cells assessed as inhibition of forskolin-stimulated cAMP accumulation preincubated for 10 mins followed by forskolin addition measured after 30 mins by Alphascreen assay
T5 sequence (P0DMS8 whole entry): T2 sequence (whole entry)

Adenosine receptor A1 [5] = target: T1, Adenosine receptor A1; experiment: Agonist activity at human A1AR expressed in FlpIn-CHO cells assessed as intracellular calcium mobilization by Fluo-4 dye-based fluorescence assay relative to control; assay type: cell-based
Adenosine receptor A1 [6] = target: T1, Adenosine receptor A1; experiment: Agonist activity at human A1AR expressed in FlpIn-CHO cells assessed as inhibition of forskolin-stimulated cAMP accumulation preincubated for 10 mins followed by forskolin addition measured after 30 mins by Alphascreen assay; assay type: functional, cell-based
[7] = target: T2, Adenosine receptor A3 (Homo sapiens); experiment: Agonist activity at human A3AR expressed in FlpIn-CHO cells assessed as inhibition of forskolin-stimulated cAMP accumulation up to 10 uM preincubated for 10 mins followed by forskolin addition measured after 30 mins by Alphascreen assay; assay type: functional, cell-based

## Nc1ccc(-c2cccc(C(=O)NCCCCCCNc3ncnc4c3ncn4[C@@H]3O[C@H](CO)[C@@H](O)[C@H]3O)c2)s1
Adenosine receptor A1 [1]
  log(activity): 7.4
[2]
  Emax: 72%
Adenosine receptor A2a
  EC50: 1.07 µM
[3]
  Emax: 45%
Adenosine receptor A1 [4]
  EC50: 0.0347 µM
Adenosine receptor A2b
  EC50: 0.0603 µM
Adenosine receptor A3
  EC50: 0.0646 µM
Adenosine receptor A1 [5]
  Emax: 47%

## O=C(NCCCCCCNc1ncnc2c1ncn2[C@@H]1O[C@H](CO)[C@@H](O)[C@H]1O)c1cccc(-c2cc(C(=O)c3ccccc3)cs2)c1
Adenosine receptor A1 [1]
  log(activity): 6.91
[2]
  Emax: 74%
Adenosine receptor A2a
  EC50: 0.437 µM
[3]
  Emax: 27%
Adenosine receptor A1 [4]
  EC50: 0.0871 µM
Adenosine receptor A2b
  EC50: 0.158 µM
Adenosine receptor A3
  EC50: 0.407 µM
Adenosine receptor A1 [5]
  Emax: 39%
Adenosine receptor A1 [6]
  EC50: 0.138 µM

## Nc1sc(-c2ccc(C(=O)NCCCCCCNc3nc(Cl)nc4c3ncn4[C@@H]3O[C@H](CO)[C@@H](O)[C@H]3O)cc2)c(-c2cccc(C(F)(F)F)c2)c1C(=O)c1ccccc1
Adenosine receptor A1 [1]
  log(activity): 6.32
Adenosine receptor A2a
  EC50: 0.145 µM
[3]
  Emax: 39%
Adenosine receptor A1 [4]
  EC50: 0.135 µM
Adenosine receptor A2b
  EC50: 0.0186 µM
[7]
  inhibition: inactive
Adenosine receptor A1 [5]
  Emax: 20%
Adenosine receptor A1 [6]
  EC50: 0.224 µM

## O=C(NCCCCCCNc1ncnc2c1ncn2[C@@H]1O[C@H](CO)[C@@H](O)[C@H]1O)c1ccc(-c2sccc2-c2cccc(C(F)(F)F)c2)cc1
Adenosine receptor A1 [1]
  log(activity): 7.03
[2]
  Emax: 26%
Adenosine receptor A2a
  EC50: 0.646 µM
[3]
  Emax: 44%
Adenosine receptor A1 [4]
  EC50: 0.0776 µM
Adenosine receptor A2b
  EC50: 0.0912 µM
Adenosine receptor A3
  EC50: 0.347 µM
Adenosine receptor A1 [5]
  Emax: 49%
Adenosine receptor A1 [6]
  EC50: 0.17 µM

## O=C(NCCCCCCNc1ncnc2c1ncn2[C@@H]1O[C@H](CO)[C@@H](O)[C@H]1O)c1ccc(-c2scc(C(=O)c3ccccc3)c2-c2cccc(C(F)(F)F)c2)cc1
Adenosine receptor A1 [1]
  log(activity): 5.74
Adenosine receptor A2a
  EC50: 2.88 µM
[3]
  Emax: 49%
Adenosine receptor A1 [4]
  EC50: 0.562 µM
Adenosine receptor A2b
  EC50: 0.148 µM
Adenosine receptor A3
  EC50: > 1 µM
Adenosine receptor A1 [5]
  Emax: 40%
Adenosine receptor A1 [6]
  EC50: 0.11 µM

## O=C(NCCCCCCNc1ncnc2c1ncn2[C@@H]1O[C@H](CO)[C@@H](O)[C@H]1O)c1cccc(-c2cccs2)c1
Adenosine receptor A1 [1]
  log(activity): 7.38
[2]
  Emax: 107%
Adenosine receptor A2a
  EC50: 1.32 µM
[3]
  Emax: 42%
Adenosine receptor A1 [4]
  EC50: 0.0355 µM
Adenosine receptor A2b
  EC50: 0.0178 µM
Adenosine receptor A3
  EC50: 0.832 µM
Adenosine receptor A1 [5]
  Emax: 49%
Adenosine receptor A1 [6]
  EC50: 0.234 µM

## Nc1sc(-c2cccc(C(=O)NCCCCCCNc3ncnc4c3ncn4[C@@H]3O[C@H](CO)[C@@H](O)[C@H]3O)c2)c(-c2cccc(C(F)(F)F)c2)c1C(=O)c1ccccc1
Adenosine receptor A1 [1]
  log(activity): 6.98
[2]
  Emax: 80%
Adenosine receptor A2a
  EC50: 0.148 µM
[3]
  Emax: 43%
Adenosine receptor A1 [4]
  EC50: 0.0933 µM
Adenosine receptor A2b
  EC50: 0.0355 µM
Adenosine receptor A3
  EC50: 0.123 µM
Adenosine receptor A1 [5]
  Emax: 48%
Adenosine receptor A1 [6]
  EC50: 0.105 µM

## CC(=O)Nc1sc(-c2ccc(C(=O)NCCCCCCNc3ncnc4c3ncn4[C@@H]3O[C@H](CO)[C@@H](O)[C@H]3O)cc2)c(-c2cccc(C(F)(F)F)c2)c1C(=O)c1ccccc1
Adenosine receptor A1 [1]
  log(activity): 5.02
[2]
  Emax: 60%
Adenosine receptor A2a
  EC50: 2.34 µM
[3]
  Emax: 44%
Adenosine receptor A1 [4]
  EC50: 0.891 µM
Adenosine receptor A2b
  EC50: 0.617 µM
Adenosine receptor A3
  EC50: 0.447 µM
Adenosine receptor A1 [5]
  Emax: 20%
Adenosine receptor A1 [6]
  EC50: 0.138 µM

## CCNC(=O)[C@H]1O[C@@H](n2cnc3c(NCCCCCCNC(=O)c4ccc(-c5sc(N)c(C(=O)c6ccccc6)c5-c5cccc(C(F)(F)F)c5)cc4)ncnc32)[C@H](O)[C@@H]1O
Adenosine receptor A1 [1]
  log(activity): 6.33
[2]
  Emax: 75%
Adenosine receptor A2a
  EC50: 0.0562 µM
[3]
  Emax: 38%
Adenosine receptor A1 [4]
  EC50: 0.0562 µM
Adenosine receptor A2b
  EC50: 0.0759 µM
Adenosine receptor A3
  EC50: 1.41 µM
Adenosine receptor A1 [5]
  Emax: 16%
Adenosine receptor A1 [6]
  EC50: 0.0977 µM

## Nc1sc(-c2ccc(C(=O)NCCCCCNc3ncnc4c3ncn4[C@@H]3O[C@H](CO)[C@@H](O)[C@H]3O)cc2)c(-c2cccc(C(F)(F)F)c2)c1C(=O)c1ccccc1
Adenosine receptor A1 [1]
  log(activity): 6.11
Adenosine receptor A2a
  EC50: 3.63 µM
[3]
  Emax: 52%
Adenosine receptor A1 [4]
  EC50: 0.0741 µM
Adenosine receptor A2b
  EC50: 0.0631 µM
Adenosine receptor A3
  EC50: > 1 µM
Adenosine receptor A1 [5]
  Emax: 31%
Adenosine receptor A1 [6]
  EC50: 0.0955 µM

## Nc1sc(-c2ccc(C(=O)NCCCCCCNc3ncnc4c3ncn4[C@@H]3O[C@H](CO)[C@@H](O)[C@H]3O)cc2)c(-c2cccc(C(F)(F)F)c2)c1C(=O)c1ccccc1
Adenosine receptor A2a
  EC50: 2.29 µM

## Nc1sc(-c2ccc(C(=O)NCCCCCCNc3ncnc4c3ncn4[C@@H]3O[C@H](CO)[C@@H](O)[C@H]3O)cc2)cc1C(=O)c1ccccc1
Adenosine receptor A1 [1]
  log(activity): 7.43
[2]
  Emax: 85%
Adenosine receptor A2a
  EC50: 0.355 µM
[3]
  Emax: 40%
Adenosine receptor A1 [4]
  EC50: 0.0295 µM
Adenosine receptor A2b
  EC50: 0.224 µM
Adenosine receptor A3
  EC50: 0.447 µM
Adenosine receptor A1 [5]
  Emax: 49%
Adenosine receptor A1 [6]
  EC50: 0.0417 µM

## CCNC(=O)[C@H]1O[C@@H](n2cnc3c(N)ncnc32)[C@H](O)[C@@H]1O [NECA]
[2]
  Emax: 97%
Adenosine receptor A1 [5]
  Emax: 54%

## Nc1sc(-c2ccc(C(=O)NCCCCCCCNc3ncnc4c3ncn4[C@@H]3O[C@H](CO)[C@@H](O)[C@H]3O)cc2)c(-c2cccc(C(F)(F)F)c2)c1C(=O)c1ccccc1
Adenosine receptor A1 [1]
  log(activity): 5.58
[2]
  Emax: 56%
Adenosine receptor A2a
  EC50: 4.9 µM
[3]
  Emax: 38%
Adenosine receptor A1 [4]
  EC50: 0.2 µM
Adenosine receptor A2b
  EC50: 0.468 µM
Adenosine receptor A3
  EC50: 0.331 µM
Adenosine receptor A1 [5]
  Emax: 28%
Adenosine receptor A1 [6]
  EC50: 0.0229 µM

## Nc1nc(NCCCCCCNC(=O)c2ccc(-c3sc(N)c(C(=O)c4ccccc4)c3-c3cccc(C(F)(F)F)c3)cc2)c2ncn([C@@H]3O[C@H](CO)[C@@H](O)[C@H]3O)c2n1
Adenosine receptor A1 [1]
  log(activity): 6.15
Adenosine receptor A2a
  EC50: 0.759 µM
[3]
  Emax: 43%
Adenosine receptor A1 [4]
  EC50: 0.257 µM
Adenosine receptor A2b
  EC50: 0.0977 µM
[7]
  inhibition: inactive
Adenosine receptor A1 [5]
  Emax: 34%
Adenosine receptor A1 [6]
  EC50: 1.35 µM

## Nc1cc(-c2cccc(C(F)(F)F)c2)c(-c2ccc(C(=O)NCCCCCCNc3ncnc4c3ncn4[C@@H]3O[C@H](CO)[C@@H](O)[C@H]3O)cc2)s1
Adenosine receptor A1 [1]
  log(activity): 6.86
[2]
  Emax: 58%
Adenosine receptor A2a
  EC50: 2.69 µM
[3]
  Emax: 28%
Adenosine receptor A1 [4]
  EC50: 0.11 µM
Adenosine receptor A2b
  EC50: 0.447 µM
Adenosine receptor A3
  EC50: 0.282 µM
Adenosine receptor A1 [5]
  Emax: 42%
Adenosine receptor A1 [6]
  EC50: 0.038 µM

## Nc1sc(-c2ccccc2C(=O)NCCCCCCNc2ncnc3c2ncn3[C@@H]2O[C@H](CO)[C@@H](O)[C@H]2O)c(-c2cccc(C(F)(F)F)c2)c1C(=O)c1ccccc1
Adenosine receptor A1 [1]
  log(activity): 5.74
[2]
  Emax: 103%
[3]
  Emax: 46%
Adenosine receptor A1 [4]
  EC50: 1.35 µM
Adenosine receptor A2b
  EC50: 0.288 µM
Adenosine receptor A3
  EC50: 0.282 µM
Adenosine receptor A1 [5]
  Emax: 43%
Adenosine receptor A1 [6]
  EC50: 1.29 µM
